Read-outs that look alike come from different tables or passages of the source.
What was measured:
[1] = test system: HCT116 cells; test: Antiproliferative activity, Alamar Blue assay, HCT116 cells; type: cell-based, human; details: Homo sapiens, HCT-116, HCT116 cells, read-out: HCT116 antiproliferative activity pIC50 (converted)
Summary of the method: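 Readout is resazurin fluorescence (ex 540, em 590 nm) after a 4 h dye incubation at 37 °C, following 4-day compound treatment of HCT116 cells plated 24 h earlier. Results expressed as % viable cells versus untreated; pIC50 derived from probit-fitted IC50.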

[2] = test system: PC-3 cells; test: Antiproliferative activity, Alamar Blue assay, PC-3 cells; type: cell-based, human; details: Homo sapiens, PC-3, PC3 cells, read-out: PC3 antiproliferative activity pIC50 (converted)
Summary of the method: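 Resazurin-based fluorescence (540 nm ex/590 nm em) measured after 4-day compound treatment plus 24 hrs dye incubation at 37° C. Cells plated at 4.5×10^3 cells/ml, adhered 24 hr first. pIC50 from probit-derived IC50 on % viable cells versus untreated, triplicate wells.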

[3] = test system: tubulin; test: Tubulin polymerization assay; type: biochemical; parameters: key: a compound showing 0 to 50% inhibition at 20 μM is reported as score 1; Score 2 compounds are defined as compound showing more than 50% inhibition at 20 μM and less than 50% inhibition at 5 μM; a compound showing more than 50% inhibition at 5 μM is reported as score 3; details: tested at 20 μM and 5 μM
Summary of the method: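 Cytoskeleton kit tubulin was run in a 10 µl final volume at 37 °C, with fluorescence read every minute for 1 h. Polymerization was taken as the maximum slope (4-point linear regression) and expressed as % of no-compound control. Compounds were tested at 20 µM, then at 5 µM if inhibition exceeded 50%, and scored by % inhibition.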

IC50 ([1]; Alamar Blue)	melting point	IC50 ([2]; Alamar Blue)	IC50 [1]	IC50 [2]	Structure (SMILES)	tubulin polymerisation score [3]
39.8 nM	128 °C	100 nM			C#Cc1cccc(C[C@@](C)(C#N)c2ccc3cc(CC)c(=O)[nH]c3c2)c1 [Compound 3]	2
	198 °C		2000 nM	5010 nM	CCc1cc2ccc(C(C#N)(CC)Cc3ccccc3)cc2[nH]c1=O (centres unmarked) [Compound 32]	1 (a compound showing 0 to 50% inhibition at 20 μM is reported as score 1)
	130 °C		794 nM	2510 nM	COc1ccccc1-c1nc(CC(C)(C#N)c2ccc3cc(C)c(=O)[nH]c3c2)no1 (centres unmarked) [Compound 33]	1 (a compound showing 0 to 50% inhibition at 20 μM is reported as score 1)
	226 °C		50.1 nM	200 nM	Cc1cc2ccc([C@](C)(C#N)Cc3cccc(C#N)c3)cc2[nH]c1=O [Compound 36]	1 (a compound showing 0 to 50% inhibition at 20 μM is reported as score 1)
	242 °C		316 nM	398 nM	Cc1cc2ccc(C(C)(C#N)Cc3cccc(Cl)c3)cc2[nH]c1=O (centres unmarked) [Compound 37]	1 (a compound showing 0 to 50% inhibition at 20 μM is reported as score 1)

Source: patent publication US8778966B2, “Quinolinone derivatives as PARP and tank inhibitors” (Janssen Pharmaceutica, NV, priority 2007, dated 2014)
